Here are results for two molecules from paper PMC5041959, “A high-content EMT screen identifies multiple receptor tyrosine kinase inhibitors with activity on TGFβ receptor” (Oncotarget, 2016).

For orientation: Emax means the size of the effect at its maximum, as opposed to the concentration needed. For orientation: Cmax means the maximum level reached in the sampled fluid or tissue.

The subject of one data set is NMuMG cells. Kind of data set: High-content microscopy EMT screen in TGFβ-treated NMuMG cells (FA, SF, FN, cell count). The class given is cell-based, murine.
A further data set deals with Py2T cells. Kind of data set: High-content microscopy EMT assay in TGFβ-treated Py2T breast cancer cells. The class given is cell-based, murine. To be noted: Py2T.
For data set [1] the following is noted: mice, single dose of 50 mg/kg; cited from earlier work.
In the next data set the target is T1, TGFBR1 (Homo sapiens, UniProt P36897).
T1 sequence (P36897 34-503): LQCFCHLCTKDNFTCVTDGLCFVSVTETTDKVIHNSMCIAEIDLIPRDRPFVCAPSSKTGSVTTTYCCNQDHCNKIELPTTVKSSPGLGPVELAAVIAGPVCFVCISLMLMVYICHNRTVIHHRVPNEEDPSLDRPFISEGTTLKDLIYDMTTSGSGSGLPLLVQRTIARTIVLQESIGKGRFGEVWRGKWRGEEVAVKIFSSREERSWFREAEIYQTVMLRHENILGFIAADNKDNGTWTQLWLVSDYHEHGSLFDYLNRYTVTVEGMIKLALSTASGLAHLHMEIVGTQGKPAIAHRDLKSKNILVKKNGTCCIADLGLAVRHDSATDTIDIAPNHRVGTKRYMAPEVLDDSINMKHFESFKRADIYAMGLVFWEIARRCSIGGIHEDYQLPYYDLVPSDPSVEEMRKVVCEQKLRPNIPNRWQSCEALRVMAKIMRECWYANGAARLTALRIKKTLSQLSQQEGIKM
Kind of data set: Biochemical kinase profiling (33PanQinase radiometric assay).

In a further data set the target is TGFBR2 (Homo sapiens, UniProt P37173). The data set is described as above.
The next data set has as its target T2, c-KIT (Homo sapiens, UniProt P10721).
T2 construct: purchased ProQinase (Freiburg, Germany)
The data set is described as above. Conditions: ATP at apparent Km.

In the next data set the target is T3, VEGFR1 (Homo sapiens, UniProt P17948).
T3 construct: purchased ProQinase (Freiburg, Germany)
The data set is described as above. To be noted: ATP at apparent Km.

Another data set concerns the target T4, VEGFR2 (Homo sapiens, UniProt P35968).
T4 construct: purchased ProQinase (Freiburg, Germany)
Described as above. To be noted: ATP at apparent Km.

The next data set deals with T5, VEGFR3 (Homo sapiens, UniProt P35916).
T5 construct: purchased ProQinase (Freiburg, Germany)
The description is as above. To be noted: ATP at apparent Km.

The target in another data set is EGFR (Homo sapiens, UniProt P00533). The data set is described as above. To be noted: read-out: EGFR IC50; ATP at apparent Km.
The next data set addresses FGFR1 (Homo sapiens, UniProt P11362). The data set is described as above. Conditions: read-out: FGFR1 IC50; ATP at apparent Km.
The next data set deals with FGFR2 (Homo sapiens, UniProt P21802). Described as above. To be noted: read-out: FGFR2 IC50; ATP at apparent Km.
A further data set has as its target FGFR3 (Homo sapiens, UniProt P22607). The description is as above. To be noted: read-out: FGFR3 IC50; ATP at apparent Km.
The target in a further data set is FGFR4 (Homo sapiens, UniProt P22455). The description is as above. Conditions: read-out: FGFR4 IC50; ATP at apparent Km.
For the next data set, the target named is PDGFRA (Homo sapiens, UniProt P16234). The data set is described as above. To be noted: read-out: PDGFRA IC50; ATP at apparent Km.
The next data set concerns the target PDGFRB (Homo sapiens, UniProt P09619). The data set is described as above. Conditions: read-out: PDGFRB IC50; ATP at apparent Km.
Another data set deals with SRC (Homo sapiens, UniProt P12931). The description is as above. Conditions: read-out: SRC IC50; ATP at apparent Km.

Molecules are shown by their SMILES. Like-named read-outs stand apart in the source and are kept apart here.

Sequence of TGFBR2 (P37173 23-567): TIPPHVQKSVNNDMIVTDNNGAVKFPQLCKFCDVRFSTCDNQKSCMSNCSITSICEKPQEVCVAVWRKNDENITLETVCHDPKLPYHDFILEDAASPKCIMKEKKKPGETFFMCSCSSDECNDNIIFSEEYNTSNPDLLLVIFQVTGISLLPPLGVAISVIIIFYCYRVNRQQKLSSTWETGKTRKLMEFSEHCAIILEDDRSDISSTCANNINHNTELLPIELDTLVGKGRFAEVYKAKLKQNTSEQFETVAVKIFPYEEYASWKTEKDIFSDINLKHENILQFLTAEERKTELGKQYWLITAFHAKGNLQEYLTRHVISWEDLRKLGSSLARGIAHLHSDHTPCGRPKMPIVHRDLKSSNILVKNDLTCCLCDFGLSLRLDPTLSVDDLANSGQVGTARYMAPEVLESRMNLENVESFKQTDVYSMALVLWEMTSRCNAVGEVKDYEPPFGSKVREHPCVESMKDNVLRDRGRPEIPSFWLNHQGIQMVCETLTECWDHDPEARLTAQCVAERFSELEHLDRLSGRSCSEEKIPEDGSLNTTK
Sequence of PDGFRB (P09619 33-1106): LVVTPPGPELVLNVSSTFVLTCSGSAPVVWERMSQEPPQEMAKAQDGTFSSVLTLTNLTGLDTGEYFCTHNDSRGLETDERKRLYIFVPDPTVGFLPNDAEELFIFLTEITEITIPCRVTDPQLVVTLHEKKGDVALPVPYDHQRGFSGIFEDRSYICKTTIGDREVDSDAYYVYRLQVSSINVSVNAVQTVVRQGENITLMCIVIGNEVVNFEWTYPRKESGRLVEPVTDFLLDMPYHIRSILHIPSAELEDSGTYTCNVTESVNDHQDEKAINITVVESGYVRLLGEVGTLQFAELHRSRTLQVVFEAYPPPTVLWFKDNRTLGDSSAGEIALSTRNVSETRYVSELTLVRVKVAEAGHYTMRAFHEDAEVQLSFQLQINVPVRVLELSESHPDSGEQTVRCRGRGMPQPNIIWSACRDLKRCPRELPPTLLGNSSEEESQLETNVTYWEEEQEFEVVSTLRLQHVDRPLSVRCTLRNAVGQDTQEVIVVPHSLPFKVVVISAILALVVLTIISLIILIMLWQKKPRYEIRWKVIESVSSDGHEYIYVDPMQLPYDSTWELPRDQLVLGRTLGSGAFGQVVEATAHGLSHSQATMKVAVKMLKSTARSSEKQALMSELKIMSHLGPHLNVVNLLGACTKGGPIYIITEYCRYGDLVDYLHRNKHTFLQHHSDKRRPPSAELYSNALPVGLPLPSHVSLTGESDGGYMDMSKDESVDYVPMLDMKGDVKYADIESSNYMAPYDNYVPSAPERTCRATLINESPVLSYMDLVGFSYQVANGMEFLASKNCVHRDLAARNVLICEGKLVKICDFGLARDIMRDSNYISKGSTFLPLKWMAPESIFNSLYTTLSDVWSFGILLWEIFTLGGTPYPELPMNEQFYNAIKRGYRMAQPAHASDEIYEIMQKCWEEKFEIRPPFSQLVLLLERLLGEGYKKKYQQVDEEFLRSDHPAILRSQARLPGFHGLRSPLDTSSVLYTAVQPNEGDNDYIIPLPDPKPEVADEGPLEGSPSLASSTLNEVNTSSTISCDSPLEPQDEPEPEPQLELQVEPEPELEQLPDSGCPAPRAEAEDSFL
T2 sequence (P10721 26-976): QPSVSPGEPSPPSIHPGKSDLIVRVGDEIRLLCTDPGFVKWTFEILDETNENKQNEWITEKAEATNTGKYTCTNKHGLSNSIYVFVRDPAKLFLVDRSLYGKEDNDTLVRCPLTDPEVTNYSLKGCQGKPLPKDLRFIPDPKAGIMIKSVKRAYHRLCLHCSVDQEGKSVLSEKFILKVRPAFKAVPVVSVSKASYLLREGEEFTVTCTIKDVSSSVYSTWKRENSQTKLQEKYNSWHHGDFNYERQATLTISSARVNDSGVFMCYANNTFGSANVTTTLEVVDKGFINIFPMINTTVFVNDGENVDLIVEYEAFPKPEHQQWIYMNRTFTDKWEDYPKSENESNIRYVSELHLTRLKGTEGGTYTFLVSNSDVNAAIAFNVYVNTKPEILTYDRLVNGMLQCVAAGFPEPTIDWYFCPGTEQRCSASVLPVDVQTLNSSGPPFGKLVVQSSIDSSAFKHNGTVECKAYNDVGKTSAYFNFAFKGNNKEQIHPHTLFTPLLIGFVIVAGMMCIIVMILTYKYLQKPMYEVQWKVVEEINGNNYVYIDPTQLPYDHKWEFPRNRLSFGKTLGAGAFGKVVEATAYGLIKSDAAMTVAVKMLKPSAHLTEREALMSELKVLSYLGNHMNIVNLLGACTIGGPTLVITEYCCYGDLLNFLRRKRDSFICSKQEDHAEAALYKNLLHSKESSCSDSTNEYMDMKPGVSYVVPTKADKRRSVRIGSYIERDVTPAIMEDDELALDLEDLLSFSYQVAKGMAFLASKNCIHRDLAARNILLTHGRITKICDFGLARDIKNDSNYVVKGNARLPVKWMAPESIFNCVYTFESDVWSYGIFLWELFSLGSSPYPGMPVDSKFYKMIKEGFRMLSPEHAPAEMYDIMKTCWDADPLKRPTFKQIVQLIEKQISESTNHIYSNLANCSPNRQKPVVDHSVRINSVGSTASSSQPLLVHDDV
Sequence of FGFR1 (P11362 22-822): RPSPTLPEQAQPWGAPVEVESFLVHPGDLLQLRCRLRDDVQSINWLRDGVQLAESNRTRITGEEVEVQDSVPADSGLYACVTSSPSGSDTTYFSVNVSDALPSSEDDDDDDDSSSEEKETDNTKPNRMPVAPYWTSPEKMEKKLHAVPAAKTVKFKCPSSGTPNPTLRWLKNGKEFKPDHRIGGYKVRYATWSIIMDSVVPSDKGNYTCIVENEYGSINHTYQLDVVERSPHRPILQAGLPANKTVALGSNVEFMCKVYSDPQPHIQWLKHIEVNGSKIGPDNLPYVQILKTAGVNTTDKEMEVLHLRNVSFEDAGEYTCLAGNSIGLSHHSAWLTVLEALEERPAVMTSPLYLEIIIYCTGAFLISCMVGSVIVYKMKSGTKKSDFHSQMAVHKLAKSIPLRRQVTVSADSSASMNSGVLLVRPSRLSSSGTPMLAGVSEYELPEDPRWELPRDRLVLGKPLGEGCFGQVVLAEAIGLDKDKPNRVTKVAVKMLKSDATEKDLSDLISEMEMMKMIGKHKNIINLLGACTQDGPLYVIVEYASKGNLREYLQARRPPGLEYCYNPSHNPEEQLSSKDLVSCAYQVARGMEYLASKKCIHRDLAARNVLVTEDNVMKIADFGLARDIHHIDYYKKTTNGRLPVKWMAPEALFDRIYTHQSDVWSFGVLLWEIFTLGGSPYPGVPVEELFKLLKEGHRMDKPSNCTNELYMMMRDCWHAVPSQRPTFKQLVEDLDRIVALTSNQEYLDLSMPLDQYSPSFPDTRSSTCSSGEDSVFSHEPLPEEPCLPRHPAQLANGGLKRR
Sequence of PDGFRA (P16234 24-1089): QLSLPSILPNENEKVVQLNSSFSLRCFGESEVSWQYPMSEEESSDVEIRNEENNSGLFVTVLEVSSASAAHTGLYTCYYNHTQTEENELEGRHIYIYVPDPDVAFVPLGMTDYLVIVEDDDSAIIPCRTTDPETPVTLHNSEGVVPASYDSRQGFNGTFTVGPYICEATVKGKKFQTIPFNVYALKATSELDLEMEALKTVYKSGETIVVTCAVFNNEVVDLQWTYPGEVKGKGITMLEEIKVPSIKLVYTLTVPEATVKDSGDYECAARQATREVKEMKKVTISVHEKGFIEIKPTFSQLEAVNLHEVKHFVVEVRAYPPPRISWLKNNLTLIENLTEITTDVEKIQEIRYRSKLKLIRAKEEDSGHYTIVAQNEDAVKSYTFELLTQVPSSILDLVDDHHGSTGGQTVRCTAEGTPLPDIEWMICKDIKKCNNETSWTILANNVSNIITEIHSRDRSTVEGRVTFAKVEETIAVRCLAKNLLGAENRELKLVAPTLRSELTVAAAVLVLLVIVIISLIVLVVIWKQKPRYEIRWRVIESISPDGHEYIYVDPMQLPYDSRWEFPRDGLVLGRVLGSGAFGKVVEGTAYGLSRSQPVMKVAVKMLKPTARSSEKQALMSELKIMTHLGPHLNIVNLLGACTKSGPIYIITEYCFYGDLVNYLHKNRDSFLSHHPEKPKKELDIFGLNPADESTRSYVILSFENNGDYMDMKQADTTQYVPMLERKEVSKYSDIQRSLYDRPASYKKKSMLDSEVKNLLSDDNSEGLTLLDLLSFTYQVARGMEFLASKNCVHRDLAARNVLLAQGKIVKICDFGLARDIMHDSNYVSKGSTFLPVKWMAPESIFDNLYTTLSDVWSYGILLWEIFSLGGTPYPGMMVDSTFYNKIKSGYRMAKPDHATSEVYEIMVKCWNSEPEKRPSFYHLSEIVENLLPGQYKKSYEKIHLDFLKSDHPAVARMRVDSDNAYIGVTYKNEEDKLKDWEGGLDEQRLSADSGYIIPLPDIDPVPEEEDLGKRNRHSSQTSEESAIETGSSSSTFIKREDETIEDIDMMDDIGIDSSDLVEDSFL
Sequence of SRC (P12931 whole entry): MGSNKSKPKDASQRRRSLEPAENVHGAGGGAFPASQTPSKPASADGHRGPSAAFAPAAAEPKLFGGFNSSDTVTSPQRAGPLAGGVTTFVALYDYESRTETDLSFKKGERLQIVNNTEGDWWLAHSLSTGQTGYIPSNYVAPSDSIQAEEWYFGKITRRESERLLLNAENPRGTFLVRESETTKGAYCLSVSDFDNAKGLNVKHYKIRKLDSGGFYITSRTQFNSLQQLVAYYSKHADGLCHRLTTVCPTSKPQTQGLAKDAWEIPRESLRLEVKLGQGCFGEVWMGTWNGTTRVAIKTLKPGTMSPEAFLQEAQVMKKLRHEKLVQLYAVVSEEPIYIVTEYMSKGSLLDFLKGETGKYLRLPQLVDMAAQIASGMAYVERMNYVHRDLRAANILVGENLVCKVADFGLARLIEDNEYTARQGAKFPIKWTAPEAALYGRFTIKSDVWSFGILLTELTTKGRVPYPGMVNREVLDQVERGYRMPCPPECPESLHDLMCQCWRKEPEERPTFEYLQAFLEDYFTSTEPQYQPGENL

As for `COC(=O)c1ccc2c(c1)NC(=O)/C2=C(\Nc1ccc(N(C)C(=O)CN2CCN(C)CC2)cc1)c1ccccc1` [Nintedanib], the IC50 in the data set on NMuMG cells (Mus musculus, 96 h, NMuMG, TGFβ1 2 ng/ml plus compound, 4 days, parameter decreased by 50%, read-out: FA IC50 (focal adhesion formation)) came to 2630 nM; in the data set on NMuMG cells (Mus musculus, 96 h, NMuMG, TGFβ1 2 ng/ml plus compound, 4 days, parameter decreased by 50%, read-out: FN IC50 (fibronectin patch formation)), 1180 nM; in the data set on NMuMG cells (Mus musculus, 96 h, NMuMG, TGFβ1 2 ng/ml plus compound, 4 days, parameter decreased by 50%, read-out: SF IC50 (stress fibers)) it was 5060 nM; in the data set on NMuMG cells (Mus musculus, NMuMG, cell count decreased by 50% compared to DMSO control, read-out: Tox IC50), 23000 nM; in the data set with NMuMG cells (Mus musculus, NMuMG, mean of IC50 values obtained for FA, SF, FN, read-out: EMT (FA/SF/FN) combined IC50), 2960 nM; in the data set on NMuMG cells (Mus musculus, read-out: CCI IC50 (cell count increase)), 1110 nM. The IC50 with Py2T cells (Mus musculus, cell count decreased by 50% compared to DMSO control, read-out: Tox IC50) is 502 nM; on TGFBR1 it was 505 nM; at TGFBR2, above 10000 nM. In addition, in the data set on NMuMG cells (Mus musculus, read-out: Emax (maximal effect on cell count)), the Emax turned out to be 26.2%. Also, the “FA IC50 (focal adhesions)” value in the data set on Py2T cells (TGFβ plus compound, 4 days) was “n.m”. For the same molecule, the “FN IC50 (fibronectin patches)” value with Py2T cells (TGFβ plus compound, 4 days) is reported as “n.m”. Further, the “SF IC50 (stress fibers)” value in the data set on Py2T cells (TGFβ plus compound, 4 days) is recorded as “n.m”. The “Emax (maximal effect on cell count)” value in the data set with Py2T cells (compared to reference 10 μM SB-431542 = 100%) was “n.m”. Further, the Cmax in data set [1] was around 1000 nM.

For the molecule `Cc1cccc(-c2[nH]c(C(C)(C)C)nc2-c2ccc3nccnc3c2)n1` [SB-525334], the IC50 with NMuMG cells (NMuMG, TGFβ1 2 ng/ml plus compound, 4 days, parameter decreased by 50%, read-out: FA IC50 (focal adhesion formation)) is 276 nM; with NMuMG cells (NMuMG, TGFβ1 2 ng/ml plus compound, 4 days, parameter decreased by 50%, read-out: FN IC50 (fibronectin patch formation)), 261 nM; with NMuMG cells (NMuMG, TGFβ1 2 ng/ml plus compound, 4 days, parameter decreased by 50%, read-out: SF IC50 (stress fibers)), 243 nM; with NMuMG cells (NMuMG, cell count decreased by 50% compared to DMSO control, read-out: Tox IC50) it was above 3000 nM; in the data set with NMuMG cells (NMuMG, cell count increased by 50% compared to 100% with 10 μM SB-431542, read-out: CCI IC50 (cell count increase)) it was 380 nM; with NMuMG cells (NMuMG, mean of IC50 values obtained for FA, SF, FN, read-out: EMT (FA/SF/FN) combined IC50), 260 nM. For the same molecule, the IC50 at c-KIT was above 10000 nM; on VEGFR1, below 0.3 nM; on VEGFR2, 3520 nM; at VEGFR3 it was above 10000 nM; on EGFR, above 10000 nM; at FGFR1, above 10000 nM. Also, the IC50 on FGFR2 is above 10000 nM; at FGFR3, above 10000 nM; on FGFR4 it was above 10000 nM; on PDGFRA, above 10000 nM; at PDGFRB, above 10000 nM; at SRC, 5620 nM. In addition, the IC50 at TGFBR2 (read-out: TGFBR2 IC50, ATP at apparent Km) was above 10000 nM. Further, in the data set on NMuMG cells (NMuMG, compared to reference 10 μM SB-431542 = 100%), the “Emax (maximal effect on cell count)” value is reported as 100%.
